# Experimental data taken from US20230167505A1, “CIRCULATING TUMOR DNA AS A BIOMARKER FOR LEUKEMIA TREATMENT” (Cardiff Oncology, Inc., priority 2020, published 2023).
# Values joined by “and” are separate entries in the source; they are usually repeats but may differ in a detail not shown here. Equal entries are not always repeated.
# System: patients with relapsed or refractory (R/R) AML
# [1] = all patients (N = 40), onvansertib + LDAC or decitabine, patients n (%)
# [2] = phase Ib, onvansertib + LDAC or decitabine
compound,measurement,setting,value
"CN1CCN(c2ccc(OC(F)(F)F)c(Nc3ncc4c(n3)-c3c(c(C(N)=O)nn3CCO)CC4)c2)CC1 [onvansertib, 1-(2-hydroxyethyl)-8-{[5-(4-methylpiperazin-1-yl)-2-(trifluoromethoxy)phenyl]amino}-4,5-dihydro-1H-pyrazolo [4,3-h] quinazoline-3-carboxamide]",G3 stomatitis possibly related to onvansertib,"3 patients: one at 60 mg/m^2, two at 90 mg/m^2",8%
same,patients discontinued from therapy because of treatment-related AEs,"G2 fatigue, G3 mucositis (DLT), G4 rash (DLT)",Three
same,"Treatment-emergent AE: Anemia, All grades (%)",[1],15 (37.5) %
same,"Treatment-emergent AE: Anemia, Grade 1-2 (%)",[1],1 (2.5) %
same,"Treatment-emergent AE: Blood bilirubin increased, All grades (%)",[1],4 (10) %
same,"Treatment-emergent AE: Blood bilirubin increased, Grace 3-4 (%)",[1],1 (2.5) %
same,"Treatment-emergent AE: Blood bilirubin increased, Grade 1-2 (%)",[1],3 (7.5) %
same,"Treatment-emergent AE: Constipation, All grades (%)",[1],6 (15) %
same,"Treatment-emergent AE: Constipation, Grade 1-2 (%)",[1],6 (15) %
same,"Treatment-emergent AE: Cough, All grades (%)",[1],6 (15) %
same,"Treatment-emergent AE: Cough, Grade 1-2 (%)",[1],6 (15) %
same,"Treatment-emergent AE: Decreased appetite, All grades (%)",[1],6 (15) %
same,"Treatment-emergent AE: Decreased appetite, Grade 1-2 (%)",[1],6 (15) %
same,"Treatment-emergent AE: Diarrhea, All grades (%)",[1],8 (20) %
same,"Treatment-emergent AE: Diarrhea, Grade 1-2 (%)",[1],8 (20) %
same,"Treatment-emergent AE: Dizziness, All grades (%)",[1],5 (12.5) %
same,"Treatment-emergent AE: Dizziness, Grade 1-2 (%)",[1],5 (12.5) %
same,"Treatment-emergent AE: Dyspnea, All grades (%)",[1],10 (25) %
same,"Treatment-emergent AE: Dyspnea, Grace 3-4 (%)",[1],2 (5) %
same,"Treatment-emergent AE: Dyspnea, Grade 1-2 (%)",[1],8 (20) %
same,"Treatment-emergent AE: Edema, All grades (%)",[1],8 (20) %
same,"Treatment-emergent AE: Edema, Grace 3-4 (%)",[1],2 (5) %
same,"Treatment-emergent AE: Edema, Grade 1-2 (%)",[1],6 (15) %
same,"Treatment-emergent AE: Epistaxis, All grades (%)",[1],6 (15) %
same,"Treatment-emergent AE: Epistaxis, Grade 1-2 (%)",[1],6 (15) %
same,"Treatment-emergent AE: Fatigue, All grades (%)",[1],14 (35) %
same,"Treatment-emergent AE: Fatigue, Grade 1-2 (%)",[1],14 (35) %
same,"Treatment-emergent AE: Febrile neutropenia, All grades (%)",[1],12 (30) %
same,"Treatment-emergent AE: Headache, All grades (%)",[1],4 (10) %
same,"Treatment-emergent AE: Headache, Grade 1-2 (%)",[1],4 (10) %
same,"Treatment-emergent AE: Leukopenia, All grades (%)",[1],5 (12.5) %
same,"Treatment-emergent AE: Leukopenia, Grace 3-4 (%)",[1],12.5% and 5 (12.5) %
same,"Treatment-emergent AE: Lung infection, All grades (%)",[1],4 (10) %
same,"Treatment-emergent AE: Lung infection, Grace 3-4 (%)",[1],4 (10) %
same,"Treatment-emergent AE: Nausea/vomiting, All grades (%)",[1],12 (30) %
same,"Treatment-emergent AE: Nausea/vomiting, Grade 1-2 (%)",[1],12 (30) %
same,"Treatment-emergent AE: Neutropenia, All grades (%)",[1],10 (25) %
same,"Treatment-emergent AE: Oropharyngeal pain, All grades (%)",[1],4 (10) %
same,"Treatment-emergent AE: Oropharyngeal pain, Grade 1-2 (%)",[1],4 (10) %
same,"Treatment-emergent AE: Pyrexia, All grades (%)",[1],5 (12.5) %
same,"Treatment-emergent AE: Pyrexia, Grade 1-2 (%)",[1],5 (12.5) %
same,"Treatment-emergent AE: Rash/pruritus, All grades (%)",[1],11 (27.5) %
same,"Treatment-emergent AE: Rash/pruritus, Grace 3-4 (%)",[1],1 (2.5) %
same,"Treatment-emergent AE: Rash/pruritus, Grade 1-2 (%)",[1],10 (25) %
same,"Treatment-emergent AE: Stomatitis, All grades (%)",[1],9 (22.5) %
same,"Treatment-emergent AE: Stomatitis, Grace 3-4 (%)",[1],12.5% and 5 (12.5) %
same,"Treatment-emergent AE: Stomatitis, Grade 1-2 (%)",[1],4 (10) %
same,"Treatment-emergent AE: Thrombocytopenia, All grades (%)",[1],12 (30) %
same,"Treatment-emergent AE: Thrombocytopenia, Grade 1-2 (%)",[1],2 (5) %
same,G3 and G4 AE possibly related to onvansertib: anemia,"all patients, N = 40",12.5%
same,G3 and G4 AE possibly related to onvansertib: leukopenia,"all patients, N = 40",5%
same,G3 and G4 AE possibly related to onvansertib: neutropenia,"all patients, N = 40",15%
same,G3 and G4 AE possibly related to onvansertib: thrombocytopenia,"all patients, N = 40",12.5%
same,patients experiencing a DLT during the first cycle,"arm B (decitabine), dose level 6 (90 mg/m^2), grade 3 mucositis and grade 4 rash",2 of 6 and 2 of the 6
same,MTD of onvansertib in combination with decitabine,"arm B, oral days 1-5 + decitabine 20 mg/m^2 IV days 1-5, 28-day cycle",60 mg/m^2
same,DLTs,"first five dose levels (12-60 mg/m^2), both arms (LDAC, decitabine)",no DLTs reported
same,tolerability,"first five dose levels (12-60 mg/m^2), with LDAC or decitabine",well tolerated
same,skin toxicities,higher incidence and higher grade at 90 mg/m^2,observed at the last two dose levels of onvansertib (60 and 90 mg/m^2)
same,SAEs considered as possibly related to onvansertib,of 71 SAEs,13%
same,patients with dose reduction of onvansertib due to hematologic toxicities,"one from 18 mg/m^2, one from 27 mg/m^2 dose level",Two
same,patients with SAEs,"phase Ib, both arms",33 patients
same,total serious AEs (SAE) reported,"phase Ib, both arms",71
same,Serious adverse event Aphasia: Number of events,[2],1
same,Serious adverse event Aphasia: Number of patients,[2],1
same,Serious adverse event Appendicitis: Number of events,[2],1
same,Serious adverse event Appendicitis: Number of patients,[2],1
same,Serious adverse event Arthralgia: Number of events,[2],1
same,Serious adverse event Arthralgia: Number of patients,[2],1
same,Serious adverse event Asthenia: Number of events,[2],1
same,Serious adverse event Asthenia: Number of patients,[2],1
same,Serious adverse event Atrial fibrillation: Number of events,[2],1
same,Serious adverse event Atrial fibrillation: Number of patients,[2],1
same,Serious adverse event Back pain: Number of events,[2],1
same,Serious adverse event Back pain: Number of patients,[2],1
same,Serious adverse event Disease progression: Number of events,[2],1
same,Serious adverse event Disease progression: Number of patients,[2],1
same,Serious adverse event Dyspnea: Number of events,[2],1
same,Serious adverse event Dyspnea: Number of patients,[2],1
same,Serious adverse event Edema peripheral: Number of events,[2],1
same,Serious adverse event Edema peripheral: Number of patients,[2],1
same,Serious adverse event Face edema: Number of events,[2],1
same,Serious adverse event Face edema: Number of patients,[2],1
same,Serious adverse event Febrile neutropenia: Number of events,[2],25
same,Serious adverse event Febrile neutropenia: Number of patients,[2],17
same,Serious adverse event Hematuria: Number of events,[2],1
same,Serious adverse event Hematuria: Number of patients,[2],1
same,Serious adverse event Hemorrhage intracranial: Number of events,[2],1
same,Serious adverse event Hemorrhage intracranial: Number of patients,[2],1
same,Serious adverse event Hyponatremia: Number of events,[2],1
same,Serious adverse event Hyponatremia: Number of patients,[2],1
same,Serious adverse event Infusion related reaction: Number of events,[2],1
same,Serious adverse event Infusion related reaction: Number of patients,[2],1
same,Serious adverse event Leukemic infiltration: Number of events,[2],1
same,Serious adverse event Leukemic infiltration: Number of patients,[2],1
same,Serious adverse event Lower gastrointestinal hemorrhage: Number of events,[2],1
same,Serious adverse event Lower gastrointestinal hemorrhage: Number of patients,[2],1
same,Serious adverse event Lung consolidation: Number of events,[2],1
same,Serious adverse event Lung consolidation: Number of patients,[2],1
same,Serious adverse event Lung infection: Number of events,[2],5
same,Serious adverse event Lung infection: Number of patients,[2],5
same,Serious adverse event Neck pain: Number of events,[2],1
same,Serious adverse event Neck pain: Number of patients,[2],1
same,Serious adverse event Neutrophil count decreased: Number of events,[2],1
same,Serious adverse event Neutrophil count decreased: Number of patients,[2],1
same,Serious adverse event Pain in jaw: Number of events,[2],1
same,Serious adverse event Pain in jaw: Number of patients,[2],1
same,Serious adverse event Palmar-plantar erythrodysaesthesia syndrome: Number of events,[2],1
same,Serious adverse event Palmar-plantar erythrodysaesthesia syndrome: Number of patients,[2],1
same,Serious adverse event Pharyngeal edema: Number of events,[2],1
same,Serious adverse event Pharyngeal edema: Number of patients,[2],1
same,Serious adverse event Physical deconditioning: Number of events,[2],1
same,Serious adverse event Physical deconditioning: Number of patients,[2],1
same,Serious adverse event Pleural effusion: Number of events,[2],1
same,Serious adverse event Pleural effusion: Number of patients,[2],1
same,Serious adverse event Pneumonia fungal: Number of events,[2],1
same,Serious adverse event Pneumonia fungal: Number of patients,[2],1
same,Serious adverse event Pneumonia: Number of events,[2],3
same,Serious adverse event Pneumonia: Number of patients,[2],3
same,Serious adverse event Pulmonary mass: Number of events,[2],1
same,Serious adverse event Pulmonary mass: Number of patients,[2],1
same,Serious adverse event Pyrexia: Number of events,[2],2
same,Serious adverse event Pyrexia: Number of patients,[2],2
same,Serious adverse event Rash maculo-papular: Number of events,[2],1
same,Serious adverse event Rash maculo-papular: Number of patients,[2],1
same,Serious adverse event Septic shock: Number of events,[2],1
same,Serious adverse event Septic shock: Number of patients,[2],1
same,Serious adverse event Seroma: Number of events,[2],1
same,Serious adverse event Seroma: Number of patients,[2],1
same,Serious adverse event Skin lesion: Number of events,[2],1
same,Serious adverse event Skin lesion: Number of patients,[2],1
same,Serious adverse event Soft tissue infection: Number of events,[2],1
same,Serious adverse event Soft tissue infection: Number of patients,[2],1
same,Serious adverse event Staphylococcal bacteremia: Number of events,[2],1
same,Serious adverse event Staphylococcal bacteremia: Number of patients,[2],1
same,Serious adverse event Stomatitis: Number of events,[2],1
same,Serious adverse event Stomatitis: Number of patients,[2],1
same,Serious adverse event Tumor lysis syndrome: Number of events,[2],1
same,Serious adverse event Tumor lysis syndrome: Number of patients,[2],1
same,Serious adverse event Urine output decreased: Number of events,[2],1
same,Serious adverse event Urine output decreased: Number of patients,[2],1
same,deaths while on treatment,"phase Ib, all related to AML or its complications",Three
